Laboratory results as given in US20110086759A1, “CHEMICAL COMPOUNDS” (SYNGENTA CROP PROTECTION, INC., priority 2007, published 2011).

Key:
Assay type in all cases: in vivo
[1] = test system: Setaria faberi (SETFA); assay: Post-emergence biological efficacy, glasshouse pot test; conditions: 312 h
In short: (§1)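 Pot-grown weeds were sprayed 8 days after sowing with test compound in acetone/water (50:50) with 0.5% Tween 20 at 1000 or 250 g/ha. Glasshouse at 24/16° C day/night, 14 h light, 65% humidity. Damage scored 0-100 (100 = total damage) after 13 days.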

[2] = test system: Alopecurus myosuroides (ALOMY); assay: as above; conditions: 312 h
In short: as §1

[3] = test system: Amaranthus retoflexus (AMARE); assay: as above; conditions: Amaranthus retroflexus, 312 h
In short: as §1

[4] = test system: Ipomea hederaceae (IPOHE); assay: as above; conditions: Ipomoea hederacea, 312 h
In short: as §1

[5] = test system: Echinochloa crus-galli (ECHCG); assay: as above; conditions: 312 h
In short: as §1

[6] = test system: Solanum nigrum (SOLNI); assay: as above; conditions: 312 h
In short: as §1

[7] = test system: Setaria faberi (SETFA); assay: Pre-emergence biological efficacy, glasshouse pot test; conditions: 312 h
In short: (§2)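 Glasshouse pot test: spray on soil one day after sowing, 1000 or 250 g/ha. Conditions 24/16 °C day/night, 14 h light, 65% humidity. Plant damage scored 0–100 at 13 days.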

[8] = test system: Alopecurus myosuroides (ALOMY); assay: as above; conditions: 312 h
In short: as §2

[9] = test system: Amaranthus retoflexus (AMARE); assay: as above; conditions: Amaranthus retroflexus, 312 h
In short: as §2

[10] = test system: Ipomea hederaceae (IPOHE); assay: as above; conditions: Ipomoea hederacea, 312 h
In short: as §2

[11] = test system: Echinochloa crus-galli (ECHCG); assay: as above; conditions: 312 h
In short: as §2

[12] = test system: Solanum nigrum (SOLNI); assay: as above; conditions: 312 h
In short: as §2

[13] = Rate 1,000 g/ha, post-emergence spray, evaluated after 13 days (100=total damage to plant; 0=no damage to plant), read-out: Percentage damage caused to weed species, post-emergence, SETFA
[14] = Rate 1,000 g/ha, post-emergence spray, evaluated after 13 days (100=total damage to plant; 0=no damage to plant), read-out: Percentage damage caused to weed species, post-emergence, ALOMY
[15] = Rate 1,000 g/ha, post-emergence spray, evaluated after 13 days (100=total damage to plant; 0=no damage to plant), read-out: Percentage damage caused to weed species, post-emergence, AMARE
[16] = Rate 1,000 g/ha, post-emergence spray, evaluated after 13 days (100=total damage to plant; 0=no damage to plant), read-out: Percentage damage caused to weed species, post-emergence, IPOHE
[17] = Rate 1,000 g/ha, post-emergence spray, evaluated after 13 days (100=total damage to plant; 0=no damage to plant), read-out: Percentage damage caused to weed species, post-emergence, ECHCG
[18] = Rate 1,000 g/ha, post-emergence spray, evaluated after 13 days (100=total damage to plant; 0=no damage to plant), read-out: Percentage damage caused to weed species, post-emergence, SOLNI
[19] = pre-emergence, rate 1,000 g/ha, evaluated after 13 days (100=total damage to plant; 0=no damage), read-out: Percentage damage caused to weed species, SETFA
[20] = pre-emergence, rate 1,000 g/ha, evaluated after 13 days (100=total damage to plant; 0=no damage), read-out: Percentage damage caused to weed species, ALOMY
[21] = pre-emergence, rate 1,000 g/ha, evaluated after 13 days (100=total damage to plant; 0=no damage), read-out: Percentage damage caused to weed species, AMARE
[22] = pre-emergence, rate 1,000 g/ha, evaluated after 13 days (100=total damage to plant; 0=no damage), read-out: Percentage damage caused to weed species, IPOHE
[23] = pre-emergence, rate 1,000 g/ha, evaluated after 13 days (100=total damage to plant; 0=no damage), read-out: Percentage damage caused to weed species, ECHCG
[24] = pre-emergence, rate 1,000 g/ha, evaluated after 13 days (100=total damage to plant; 0=no damage), read-out: Percentage damage caused to weed species, SOLNI
[25] = post-emergence, 1,000 g/ha, evaluated after 13 days (100=total damage; 0=no damage), read-out: Percentage damage caused to weed species, SETFA
[26] = post-emergence, 1,000 g/ha, evaluated after 13 days (100=total damage; 0=no damage), read-out: Percentage damage caused to weed species, ALOMY
[27] = post-emergence, 1,000 g/ha, evaluated after 13 days (100=total damage; 0=no damage), read-out: Percentage damage caused to weed species, AMARE
[28] = post-emergence, 1,000 g/ha, evaluated after 13 days (100=total damage; 0=no damage), read-out: Percentage damage caused to weed species, IPOHE
[29] = post-emergence, 1,000 g/ha, evaluated after 13 days (100=total damage; 0=no damage), read-out: Percentage damage caused to weed species, ECHCG
[30] = post-emergence, 1,000 g/ha, evaluated after 13 days (100=total damage; 0=no damage), read-out: Percentage damage caused to weed species, SOLNI
[31] = pre-emergence, 1,000 g/ha, evaluated after 13 days (100=total damage; 0=no damage), read-out: Percentage damage SETFA
[32] = pre-emergence, 1,000 g/ha, evaluated after 13 days (100=total damage; 0=no damage), read-out: Percentage damage ALOMY
[33] = pre-emergence, 1,000 g/ha, evaluated after 13 days (100=total damage; 0=no damage), read-out: Percentage damage AMARE
[34] = pre-emergence, 1,000 g/ha, evaluated after 13 days (100=total damage; 0=no damage), read-out: Percentage damage IPOHE
[35] = pre-emergence, 1,000 g/ha, evaluated after 13 days (100=total damage; 0=no damage), read-out: Percentage damage ECHCG
[36] = pre-emergence, 1,000 g/ha, evaluated after 13 days (100=total damage; 0=no damage), read-out: Percentage damage SOLNI

| Compound | pest or weed control at 1000 g/ha [1, 13] [%] | pest or weed control at 1000 g/ha [2, 14] [%] | pest or weed control at 1000 g/ha [3, 15] [%] | pest or weed control at 1000 g/ha [4, 16] [%] | pest or weed control at 1000 g/ha [5, 17] [%] | pest or weed control at 1000 g/ha [6, 18] [%] | pest or weed control at 1000 g/ha [7, 19] [%] | pest or weed control at 1000 g/ha [8, 20] [%] | pest or weed control at 1000 g/ha [9, 21] [%] | pest or weed control at 1000 g/ha [10, 22] [%] | pest or weed control at 1000 g/ha [11, 23] [%] | pest or weed control at 1000 g/ha [12, 24] [%] | further results |
| --- | --- | --- | --- | --- | --- | --- | --- | --- | --- | --- | --- | --- | --- |
| COC(=O)c1nc(C2CC2)nc(N(C)Cc2ccc(C)o2)c1Cl [Compound 5-135, 5-Chloro-2-cyclopropyl-6-methoxycarbonyl-4-[N-methyl-N-(5-methylfuran-2-ylmethyl)-amino]-pyrimidine] | 80 | 30 | 100 | 100 | 40 | 90 | 10 | 30 | 100 | 100 | 0 | 90 | – |
| COC(=O)c1nc(C2CC2)nc(NCc2cccc(C(F)(F)F)c2)c1Cl [Compound 4-76, 5-Chloro-2-cyclopropyl-6-methoxycarbonyl-4-(3-trifluoromethyl-phenylmethyl-amino)pyrimidine] | – | – | – | – | – | – | – | – | – | – | – | – | pest or weed control at 1000 g/ha [1, 25]: 90%; pest or weed control at 1000 g/ha [2, 26]: 40%; pest or weed control at 1000 g/ha [3, 27]: 100%; pest or weed control at 1000 g/ha [4, 28]: 100%; pest or weed control at 1000 g/ha [5, 29]: 70%; pest or weed control at 1000 g/ha [6, 30]: 100%; pest or weed control at 1000 g/ha [7, 31]: 50%; pest or weed control at 1000 g/ha [8, 32]: 40%; pest or weed control at 1000 g/ha [9, 33]: 60%; pest or weed control at 1000 g/ha [10, 34]: 70%; pest or weed control at 1000 g/ha [11, 35]: 60%; pest or weed control at 1000 g/ha [12, 36]: 60% |
| COC(=O)c1nc(C2CC2)nc(N(Cc2ccccc2)C[Si](C)(C)C)c1Cl [Compound 150-60, 5-Chloro-2-cyclopropyl-6-methoxycarbonyl-4-(N-phenylmethyl-N-trimethylsilylmethyl-amino)pyrimidine] | 70 | 40 | 100 | 90 | 60 | 90 | 20 | 20 | 80 | 90 | 40 | 70 | – |
| COC(=O)c1nc(-c2ccc(Cl)c(F)c2Cl)nc(NCc2ccco2)c1Cl [Compound 224-48, 5-Chloro-2-(2,4-dichloro-3-fluorophenyl)-4-(furan-2-ylmethyl-amino)-6-methoxy-carbonylpyrimidine] | 80 | 60 | 100 | 70 | 40 | 90 | 50 | 60 | 100 | 70 | 0 | 90 | – |
| COC(=O)c1nc(C2CC2)nc(NCc2ccc(C)cc2)c1Cl [Compound 4-73, 5-Chloro-2-cyclopropyl-6-methoxycarbonyl-4-(4-methylphenyl-methylamino)-pyrimidine] | – | – | – | – | – | – | – | – | – | – | – | – | pest or weed control at 1000 g/ha [1, 25]: 80%; pest or weed control at 1000 g/ha [2, 26]: 20%; pest or weed control at 1000 g/ha [3, 27]: 100%; pest or weed control at 1000 g/ha [4, 28]: 100%; pest or weed control at 1000 g/ha [5, 29]: 60%; pest or weed control at 1000 g/ha [6, 30]: 100%; pest or weed control at 1000 g/ha [7, 31]: 20%; pest or weed control at 1000 g/ha [8, 32]: 10%; pest or weed control at 1000 g/ha [9, 33]: 70%; pest or weed control at 1000 g/ha [10, 34]: 80%; pest or weed control at 1000 g/ha [11, 35]: 30%; pest or weed control at 1000 g/ha [12, 36]: 60% |
| COC(=O)c1nc(-c2ccc(C(F)(F)F)cc2)nc(NCc2ccco2)c1Cl [Compound 233-48, 5-Chloro-4-(furan-2-ylmethylamino)-6-methoxycarbonyl-2-(4-trifluoromethyl-phenyl)pyrimidine] | 10 | 20 | 80 | 70 | 30 | 80 | 20 | 30 | 100 | 60 | 20 | 100 | – |
| C=Cc1ccc(-c2c(NCc3ccco3)nc(C3CC3)nc2C(=O)OC)cc1 [Compound 187-125, 2-Cyclopropyl-5-(4-ethenylphenyl)-4-(furan-2-ylmethylamino)-6-methoxycarbonyl-pyrimidine] | 0 | 0 | 70 | 40 | 0 | 50 | 0 | 0 | 0 | 0 | 0 | 0 | – |
| COC(=O)c1nc(-c2ccc(Cl)c(Cl)c2Cl)nc(NCc2ccco2)c1Cl [Compound 231-48, 5-Chloro-4-(furan-2-ylmethylamino)-6-methoxycarbonyl-2-(2,3,4-trichloro-phenyl)pyrimidine] | 70 | 50 | 100 | 70 | 30 | 80 | 20 | 40 | 100 | 10 | 30 | 40 | – |
| COC(=O)c1nc(Cl)nc(NCc2ccccc2)c1Cl [Compound 207-35, 2,5-Dichloro-6-methoxycarbonyl-4-phenylmethylamino-pyrimidine] | 30 | 30 | 50 | 10 | 20 | 60 | 0 | 10 | 30 | 10 | 10 | 0 | – |
